From patent publication US9655904B2, “Substituted benzoazepines as toll-like receptor modulators” (VentiRx Pharmaceuticals, Inc., priority 2009, dated 2017)

Legend:
TLR8 = target: T1, TLR8 (Homo sapiens, UniProt Q9NR97); experiment: PBMC assay for TLR8 (TNFα in supernatants by ELISA); format: cell-based; design: Peripheral blood mononuclear cells (PBMCs) from human blood were isolated; endogenous in cells; host or cells: human PBMCs; settings: human PBMCs incubated with compound overnight, MC50 = concentration at which 50% of maximum induction is seen
T1 sequence (Q9NR97 27-1041): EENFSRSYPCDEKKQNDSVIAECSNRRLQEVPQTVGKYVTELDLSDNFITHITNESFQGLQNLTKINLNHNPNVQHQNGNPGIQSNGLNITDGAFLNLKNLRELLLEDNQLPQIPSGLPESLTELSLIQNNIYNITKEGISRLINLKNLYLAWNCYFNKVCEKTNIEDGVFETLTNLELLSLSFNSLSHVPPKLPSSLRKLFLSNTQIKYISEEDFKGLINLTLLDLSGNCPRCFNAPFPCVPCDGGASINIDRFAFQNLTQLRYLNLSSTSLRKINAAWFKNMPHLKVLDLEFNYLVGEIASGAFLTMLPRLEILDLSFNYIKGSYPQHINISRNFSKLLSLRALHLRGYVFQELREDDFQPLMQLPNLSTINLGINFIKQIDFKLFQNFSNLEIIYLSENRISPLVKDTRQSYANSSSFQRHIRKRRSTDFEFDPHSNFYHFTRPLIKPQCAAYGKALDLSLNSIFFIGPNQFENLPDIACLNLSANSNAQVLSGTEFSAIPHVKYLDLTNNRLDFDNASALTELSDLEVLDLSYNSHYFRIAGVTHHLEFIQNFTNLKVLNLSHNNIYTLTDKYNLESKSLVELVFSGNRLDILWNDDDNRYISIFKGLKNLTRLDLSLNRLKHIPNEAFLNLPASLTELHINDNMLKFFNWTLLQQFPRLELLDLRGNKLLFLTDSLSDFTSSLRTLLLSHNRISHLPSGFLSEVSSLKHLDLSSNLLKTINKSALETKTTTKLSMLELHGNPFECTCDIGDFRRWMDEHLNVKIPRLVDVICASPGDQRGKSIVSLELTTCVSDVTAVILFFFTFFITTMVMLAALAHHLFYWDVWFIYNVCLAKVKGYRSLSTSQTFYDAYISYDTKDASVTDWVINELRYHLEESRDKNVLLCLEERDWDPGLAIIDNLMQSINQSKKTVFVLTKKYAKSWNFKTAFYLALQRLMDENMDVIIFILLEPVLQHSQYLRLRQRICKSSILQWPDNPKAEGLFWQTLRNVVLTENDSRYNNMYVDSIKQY
Protocol: (§1) Peripheral blood mononuclear cells (PBMCs) from human blood were isolated using BD Vacutainer Cell Preparation Tubes with sodium citrate. Cells were incubated with compound overnight. TLR8 activity was assayed by measuring the amount of TNFα in supernatants by ELISA. TLR7 activity was assayed by measuring the amount of IFNα in supernatants by ELISA (R&D Systems). […] The results of this assay are shown below in Tables 2 and 3.
(§2) MC50 numbers are represented as factors of ten, for example, + indicates an MC50 value of X 10^4, or a value in the tens of thousands of nanomolar (nM range); ++ indicates an MC50 value of X 10^3, or a value in the thousands; +++ indicates an MC50 value of X 10^2, or a value in the hundreds; and ++++ indicates an MC50 value of X 10^1 or 10^0, or a value in the tens or ones.

TLR7 = target: T2, TLR7 (Homo sapiens, UniProt Q9NYK1); experiment: PBMC assay for TLR7 (IFNα in supernatants by ELISA); format: cell-based; design: Peripheral blood mononuclear cells (PBMCs) from human blood were isolated; endogenous in cells; host or cells: human PBMCs; settings: human PBMCs incubated with compound overnight, MC50 = concentration at which 50% of maximum induction is seen
T2 sequence (Q9NYK1 27-1049): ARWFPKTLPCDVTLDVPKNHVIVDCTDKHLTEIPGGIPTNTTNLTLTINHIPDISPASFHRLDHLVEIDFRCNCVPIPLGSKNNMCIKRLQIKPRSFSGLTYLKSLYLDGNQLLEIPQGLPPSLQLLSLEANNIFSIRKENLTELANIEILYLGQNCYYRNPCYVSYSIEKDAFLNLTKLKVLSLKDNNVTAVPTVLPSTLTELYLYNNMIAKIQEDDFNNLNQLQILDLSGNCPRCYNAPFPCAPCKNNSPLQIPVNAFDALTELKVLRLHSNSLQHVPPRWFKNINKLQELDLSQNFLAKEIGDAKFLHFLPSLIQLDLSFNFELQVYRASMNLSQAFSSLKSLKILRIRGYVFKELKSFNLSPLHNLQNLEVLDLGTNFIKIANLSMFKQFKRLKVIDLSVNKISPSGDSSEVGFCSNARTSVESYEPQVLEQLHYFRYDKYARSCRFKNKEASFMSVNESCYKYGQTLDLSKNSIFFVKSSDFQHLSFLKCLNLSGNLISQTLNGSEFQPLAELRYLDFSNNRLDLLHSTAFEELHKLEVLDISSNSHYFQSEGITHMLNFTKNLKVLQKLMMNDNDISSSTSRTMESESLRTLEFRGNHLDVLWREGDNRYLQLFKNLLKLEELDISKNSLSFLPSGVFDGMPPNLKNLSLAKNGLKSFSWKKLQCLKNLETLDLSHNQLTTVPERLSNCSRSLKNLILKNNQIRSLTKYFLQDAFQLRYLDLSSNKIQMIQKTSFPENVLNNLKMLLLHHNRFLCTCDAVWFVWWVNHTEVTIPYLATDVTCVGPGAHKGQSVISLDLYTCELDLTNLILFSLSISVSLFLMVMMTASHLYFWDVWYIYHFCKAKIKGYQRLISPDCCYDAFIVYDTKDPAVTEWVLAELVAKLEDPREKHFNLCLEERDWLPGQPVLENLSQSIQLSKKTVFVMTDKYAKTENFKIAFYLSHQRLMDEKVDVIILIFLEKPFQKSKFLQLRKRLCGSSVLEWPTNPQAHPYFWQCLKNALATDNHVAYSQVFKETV
Protocol: as §1, §2

Row | EC50 (TLR8) [µM] | EC50 (TLR7) [µM] | Structure (SMILES)
1 | 0.1 to 1 |  | CCCN(CC1CCNCC1)C(=O)C1=Cc2ccc(-c3ccc(C(=O)N4CCCC4)cc3)cc2N=C(N)C1 [Compound 113, (1E,4E)-2-amino-N-(piperidin-4-ylmethyl)-N-propyl-8-(4-(pyrrolidine-1-carbonyl)phenyl)-3H-benzo[b]azepine-4-carboxamide]
2 | 1 to 10 | 10 to 100 | NC1=Nc2cc(-c3ccc(C(=O)N4CCCC4)cc3)ccc2C=C(C(=O)NOCc2ccccc2)C1 [Compound 116, (1E,4E)-2-amino-N-(benzyloxy)-8-(4-(pyrrolidine-1-carbonyl)phenyl)-3H-benzo[b]azepine-4-carboxamide]
3 | 0.001 to 0.1 |  | CCCN(OCc1ccccc1)C(=O)C1=Cc2ccc(-c3ccc(C(=O)N4CCCC4)cc3)cc2N=C(N)C1 [Compound 118, (1E,4E)-2-amino-N-(benzyloxy)-N-propyl-8-(4-(pyrrolidine-1-carbonyl)phenyl)-3H-benzo[b]azepine-4-carboxamide]
4 | 0.1 to 1 |  | CCOC(=O)C1=Cc2ccc(OCc3ccccc3)cc2N=C(N)C1 [Compound 148, (1E,4E)-ethyl 2-amino-8-(benzyloxy)-3H-benzo[b]azepine-4-carboxylate]
5 | 1 to 10 |  | CCCN(CC1CCCN1)C(=O)C1=Cc2ccc(-c3ccc(C(=O)N4CCCC4)cc3)cc2N=C(N)C1 (stereo not drawn) [Compound 175, (1E,4E)-2-amino-N-propyl-N-(pyrrolidin-2-ylmethyl)-8-(4-(pyrrolidine-1-carbonyl)phenyl)-3H-benzo[b]azepine-4-carboxamide]
6 | 0.1 to 1 |  | CCCN(CCCS(N)(=O)=O)C(=O)C1=Cc2ccc(-c3ccc(C(=O)N4CCCC4)cc3)cc2N=C(N)C1 [Compound 177, (1E,4E)-2-amino-N-propyl-8-(4-(pyrrolidine-1-carbonyl)phenyl)-N-(3-sulfamoylpropyl)-3H-benzo[b]azepine-4-carboxamide]
7 | 0.001 to 0.1 | 1 to 10 | CCCN(CCC)C(=O)C1=Cc2ccc(CCCN3CCOCC3)cc2N=C(N)C1 [Compound 184, (1E,4E)-2-amino-8-(3-morpholinopropyl)-N,N-dipropyl-3H-benzo[b]azepine-4-carboxamide]
8 | 0.1 to 1 |  | CCCN(CCC)C(=O)C1=Cc2ccc(OCc3ccccc3)cc2N=C(N)C1 [Compound 185, (1E,4E)-2-amino-8-(benzyloxy)-N,N-dipropyl-3H-benzo[b]azepine-4-carboxamide]
9 | 1 to 10 | 10 to 100 | CCCN(CCC)C(=O)C1=Cc2ccc(-c3ccc(CC(=O)O)cc3)cc2N=C(N)C1 [Compound 191, 2-(4-((1E,4E)-2-Amino-4-(dipropylcarbamoyl)-3H-benzo[b]azepin-8-yl)phenyl)acetic acid]
10 | 0.1 to 1 | 10 to 100 | CCCN(CCC)C(=O)C1=Cc2ccc(-c3ccc(CC(=O)OCC)cc3)cc2N=C(N)C1 [Compound 192, Ethyl 2-(4-((1E,4E)-2-amino-4-(dipropylcarbamoyl)-3H-benzo[b]azepin-8-yl)phenyl)acetate]
11 | 1 to 10 | 1 to 10 | CCCN(CCC)C(=O)C1=Cc2ccc(-c3ccc(CCC(=O)OCC)cc3)cc2N=C(N)C1 [Compound 193, Ethyl 3-(4-((1E,4E)-2-amino-4-(dipropylcarbamoyl)-3H-benzo[b]azepin-8-yl)phenyl)propanoate]
12 | 10 to 100 |  | CCCN(CCC)C(=O)C1=Cc2ccc(-c3ccc(OCC(=O)O)cc3)cc2N=C(N)C1 [Compound 196, 2-(4-((1E,4E)-2-Amino-4-(dipropylcarbamoyl)-3H-benzo[b]azepin-8-yl)phenoxy)acetic acid]
13 | 0.1 to 1 | 1 to 10 | CCCN(CCC)C(=O)C1=Cc2ccc(-c3ccc(OCC(=O)OCC)cc3)cc2N=C(N)C1 [Compound 197, Ethyl 2-(4-((1E,4E)-2-amino-4-(dipropylcarbamoyl)-3H-benzo[b]azepin-8-yl)phenoxy)acetate]
14 | 0.1 to 1 |  | CCCN(CCC)C(=O)C1=Cc2ccc(-c3ccc4c(c3)COC4=O)cc2N=C(N)C1 [Compound 198, (1E,4E)-2-Amino-8-(1-oxo-1,3-dihydroisobenzofuran-5-yl)-N,N-dipropyl-3H-benzo[b]azepine-4-carboxamide]
15 | 0.001 to 0.1 |  | CCOC(=O)C1=Cc2ccc(CCCN3CCOCC3)cc2N=C(N)C1 [Compound 200, (1E,4E)-ethyl 2-amino-8-(3-morpholinopropyl)-3H-benzo[b]azepine-4-carboxylate]
16 | 0.1 to 1 |  | CCCN(CCC)C(=O)C1=Cc2ccc(-c3ccc(C(=O)NCCCC(=O)OCc4ccccc4)cc3)cc2N=C(N)C1 [Compound 201, benzyl 4-(4-((1E,4E)-2-amino-4-(dipropylcarbamoyl)-3H-benzo[b]azepin-8-yl)benzamido)butanoate]
17 | 0.1 to 1 |  | CCCN(CCC)C(=O)C1=Cc2ccc(-c3cccc(CC(=O)OCC)c3)cc2N=C(N)C1 [Compound 205, Ethyl 2-(3-((1E,4E)-2-amino-4-(dipropylcarbamoyl)-3H-benzo[b]azepin-8-yl)phenyl)acetate]
18 | 0.001 to 0.1 |  | CCCN(CCCO)C(=O)C1=Cc2ccc(-c3ccc(CC(=O)OCC4CC4)cc3)cc2N=C(N)C1 [Compound 217, Cyclopropylmethyl 2-(4-((1E,4E)-2-amino-4-((3-hydroxypropyl)(propyl)carbamoyl)-3H-benzo[b]azepin-8-yl)phenyl)acetate]
19 | 0.1 to 1 |  | CCCN(CCCO)C(=O)C1=Cc2ccc(-c3ccc(CC(=O)OCc4ccccc4)cc3)cc2N=C(N)C1 [Compound 218, Benzyl 2-(4-((1E,4E)-2-amino-4-((3-hydroxypropyl)(propyl)carbamoyl)-3H-benzo[b]azepin-8-yl)phenyl)acetate]
20 | 0.1 to 1 |  | CCCN(CCCO)C(=O)C1=Cc2ccc(-c3ccc4c(c3)COC4=O)cc2N=C(N)C1 [Compound 221, (1E,4E)-2-Amino-N-(3-hydroxypropyl)-8-(1-oxo-1,3-dihydroisobenzofuran-5-yl)-N-propyl-3H-benzo[b]azepine-4-carboxamide]
21 | 0.1 to 1 |  | CCCN(CCC)C(=O)C1=Cc2ccc(-c3ccc(OS(=O)(=O)C(F)(F)F)cc3)cc2N=C(N)C1 [Compound 226, 4-((1E,4E)-2-amino-4-(dipropylcarbamoyl)-3H-benzo[b]azepin-8-yl)phenyl trifluoromethanesulfonate]
